For assay [1], the system named is PPARγ. Briefly: PPARγ efficacy score from expression of the 22-probe efficacy-related gene population in cultured 3T3L1 adipocytes. The format is cell-based, mouse. Conditions: mean over 22 probes of logRatio divided by template logRatio, template = average of Rosiglitazone and {2-[2-(4-phenoxy-2-propylphenoxy)ethyl]-1H-indol-5-yl}acetic acid. As for the experimental part:
Twenty four hours after the cells were contacted with one or other of the foregoing agents the cells were harvested and RNA extracted therefrom.
Thus, an efficacy value a PPARγ agonist, or partial agonist, was calculated in the following manner. […] This mean value was the PPARγ efficacy value for the PPARγ agonist, or partial agonist.
A chi-square fitting was also used to calculate the efficacy value for each tested PPARγ agonist, or partial agonist. The chi-square fitting formula used was: [formula]
Where Ri, σRi stand for the logRatio and error for logRatio of the full template. Xi and σXi stand for the logRatio and error for logRatio of the testing compound.
A PPARα agonist was included as a control.

For assay [2], the system named is PPARγ. Briefly: PPARγ classifier value from expression of the 303-probe classifier gene population in 3T3L1 adipocyte cell line. The format is cell-based, mouse. Conditions: Phase 3, high dosage (30×EC50), mean over 303 probes of logRatio divided by template logRatio, template = average of two full agonists (Group 1). As for the experimental part: The overall experiment was conducted in three phases (i.e., in three separate experiments conducted at three different times) as shown in Table 11 below. Three replicates were done for each of the tested compounds in each phase of the experiment.
The other PPARγ agonist, and partial agonist, compounds were used in testing the classifier population of genes. […] The PPARα agonist was included as a control.
The three replicate gene expression profiles within each phase of the experiment were first combined based on the error-weighted average. Expression profiles of two PPARγ full agonists, and four PPARγ partial agonists (in Phase 1) were chosen for classifier training, and were divided into the following two groups:
Group 1: two PPARγ full agonists (5-(4-{2-[methyl(pyridin-2-yl)amino]ethoxy} benzyl)-1,3-thiazolidine-2,4-dione and 5-{4-[2-hydroxy-2-(5-methyl-2-phenyl-1,3-oxazol-4-yl)ethoxy]benzyl}-1,3-thiazolidine-2,4-dione)
The Matlab function ANOVA1 (one-way analysis of variance) was used to calculate the pvalue (hereafter referred to as the ANOVA-pvalue) for the null hypothesis that the means of Group 1 and Group 2 are equal.

Experimental findings from patent US20050084872A1 (priority 2003, published 2005) are described below.

In the case of `CCCc1cc(Oc2ccccc2)ccc1OCCc1cc2cc(CC(=O)O)ccc2[nH]1` [Agonist 1, {2-[2-(4-phenoxy-2-propylphenoxy)ethyl]-1H-indol-5-yl}acetic acid], the “Efficacy Score” value in assay [1] amounted to 1.033. Moreover, the “Classifier Value” in assay [2] was 0.881.

As to `CN(CCOc1ccc(CC2SC(=O)NC2=O)cc1)c1ccccn1` (stereo not shown) [Rosiglitazone, 5-(4-{2-[methyl(pyridin-2-yl)amino]ethoxy}benzyl)-1,3-thiazolidine-2,4-dione], the “Efficacy Score” value in assay [1] was found to be 0.967. In assay [2], the “Classifier Value” was found to be 0.850.
